This is an account of results in patent publication US10377778B2, “Lead and thorium compounds” (Sciencons AS, priority 2017, dated 2019).

The nature of data set [1]: Stability testing of ^212Pb-labeled ligands in vitro (TLC radiochemical purity in PBS and FBS). The data set is classed as physicochemical. Conditions: 37° C. As for the experimental part:
(§1) Thin layer chromatography (TLC) was performed using chromatography strips (model #150-772, Biodex Medical Systems Inc, Shirley, N.Y., USA). A formulation buffer (FB) consisting of 7.5% human serum albumin and 5 mM EDTA in DPBS and adjusted to approximately pH 7 with NaOH was mixed with the antibody conjugates in ratio 2:1 for at least 5 minutes before application to the strips to determine free radionuclide. A small beaker with about 0.5 ml of 0.9% NaCl was used to place strips with a sample spot in. To the strip was typically added 1-4 μl of sample at approximately 10% above the bottom of the strip. After the solvent front had moved to about 20% from the top of the strip, the strip was cut in half and each half was placed in a 5 ml test tube for counting. In this system radiolabeled ligand stays at the bottom half while radionuclide complexed with EDTA migrates to the upper half. It was verified that free cations of both ^212Pb and ^177Lu would complex with EDTA and moved to the top.
TLC analyses were performed at 1 h, 4 h, 24 h and 48 h of incubation. […]

A short description of data set [2]: Radiolytic stability: TLC measured RCP when kept in ^224Ra solution. The data set is classed as physicochemical. The procedure:
as §1
Initial activity in the solution was about 5 MBq/ml causing an absorbed radiation dose to the solution of about 1.8 Gy after 24 h and 3.3 Gy after 48 hours. The data (Table 2) indicate a slight decline at the longest exposure time but in general a relatively strong radiolytic resistance of the ligand was observed, which is compatible with centralized production and shipment to the end user ^224Ra-based generator solution with or without removal of ^224Ra prior to the administration of product.

The test system of data set [3] is C4-2 PSMA-positive xenografts. The data set can be described thus: Biodistribution of radiolabelled ligands (^224Ra/^212Pb solutions, ^177Lu) in nude mice with C4-2 xenografts. As for the experimental part: Each group usually consisted of three mice. […] Approximately 16 kBq of ^224Ra/^212Pb was injected in each animal, i.e., approximately 0.2 nmol of ligand per mouse. Animals were given anaesthesia and sacrificed by cervical dislocation followed by dissection and harvesting of tissue-, blood- and urine samples. The samples were weighed and counted on a gamma counter.
Three mice in each group. […] The molar concentration was the same for both products, i.e., 12.5 nmol per MBq. Approximately 16 kBq of ^224Ra/^212Pb was injected in each animal, i.e., approximately 0.2 nmol of ligand per mouse. Animals were given anaesthesia and sacrificed by cervical dislocation followed by dissection and harvesting of tissue-, blood- and urine samples. The samples were weighed and counted on a gamma counter.
Methods: Tumor and kidney uptake of ^212Pb-labeled p-SCN-Bn-TCMC-PSMA ligand 1 and ^177Lu-labeled PSMA-617 was compared at 1 hours and 4 hours after administration of the products by intravenous injection into nude mice with C4-2 xenografts as described in Example 9.

[4] abbreviates: 4 h after i.v. injection, ^224Ra/^212Pb solution.

Consider `NC(=O)CN1CCN(CC(N)=O)CCN(CC(N)=O)C(Cc2ccc(NC(=S)NCC3CCC(C(=O)NC(Cc4ccc5ccccc5c4)C(=O)NCCCCC(NC(=O)NC(CCC(=O)O)C(=O)O)C(=O)O)CC3)cc2)CN(CC(N)=O)CC1.[212Pb+2]` (stereo not shown) [^212Pb-p-SCN-Bn-TCMC-PSMA ligand 1], for which the Radiochemical purity amounted to 93.50% in data set [1] (FBS, 1 h since start of incubation, in ^224Ra/^212Pb solution); 94.18% in data set [1] (FBS, 4 h); 93.54% in data set [1] (FBS, 24 h); 90.81% in data set [1] (FBS, 48 h); 93.26% in data set [1] (PBS, 1 h since start of incubation, in ^224Ra/^212Pb solution); 95.04% in data set [1] (PBS, 4 h). In addition, the Radiochemical purity in data set [1] (PBS, 24 h) was found to be 95.00%; in data set [1] (PBS, 48 h) it was 95.11%. The “TLC measured RCP” value worked out at 93.81% in data set [2] (kept in ^224Ra solution 0.5 h); 92.84% in data set [2] (kept in ^224Ra solution 1 h); 94.75% in data set [2] (kept in ^224Ra solution 4 h); 94.85% in data set [2] (kept in ^224Ra solution 24 h); 94.85% in data set [2] (kept in ^224Ra solution 48 h). The Average tumor-to-kidney ratio in data set [3] (1-hour point after administration) amounted to 0.40. Moreover, the Tumor-to-kidney ratio in data set [3] (4-hour timepoint) was determined as 1.7. Moreover, the “Uptake ratio to ^212Pb-PSMA-617, blood” value in data set [3] (setting [4]) is on record as 1.21. Also, the “Uptake ratio to ^212Pb-PSMA-617, kidneys” value in data set [3] (setting [4]) was 0.20. Further, in data set [3] (setting [4]), the “Uptake ratio to ^212Pb-PSMA-617, liver” value turned out to be 2.67. For the same compound, in data set [3] (setting [4]), the “Uptake ratio to ^212Pb-PSMA-617, spleen” value is recorded as 0.71. Also, the “Uptake ratio to ^212Pb-PSMA-617, tumor” value in data set [3] (4 h after i.v. injection, ^224Ra/^212Pb solution, about 0.2 nmol ligand per mouse) was found to be 1.35. In addition, the “Kidney uptake (average)” value in data set [3] (4 hours after i.v. injection) stood at 8.1 % ID/g. The “Tumor uptake (average)” value in data set [3] (4 hours after i.v. injection) worked out at 13.9 % ID/g.
